{"source": "paper PMC9854187", "about": "“A novel Mcl-1 inhibitor synergizes with venetoclax to induce apoptosis in cancer cells” (Molecular Medicine, 2023)", "biological_target": "T1, Mcl-1 (Homo sapiens, UniProt Q07820)", "T1 construct": "gene MCL1; recombinant GST-Mcl-1", "T1 sequence (Q07820 whole entry)": "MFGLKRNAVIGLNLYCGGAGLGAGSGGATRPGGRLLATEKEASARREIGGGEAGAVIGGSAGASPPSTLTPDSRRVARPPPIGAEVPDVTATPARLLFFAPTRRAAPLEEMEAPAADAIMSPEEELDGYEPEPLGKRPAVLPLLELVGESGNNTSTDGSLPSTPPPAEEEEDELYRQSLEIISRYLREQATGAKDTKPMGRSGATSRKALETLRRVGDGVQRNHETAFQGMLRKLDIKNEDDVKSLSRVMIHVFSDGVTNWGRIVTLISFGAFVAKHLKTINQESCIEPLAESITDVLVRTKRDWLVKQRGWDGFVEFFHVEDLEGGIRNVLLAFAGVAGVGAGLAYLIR", "experiment": "fluorescence polarization with recombinant GST-Mcl-1; supported by GST pull-down showing disruption of Mcl-1/Bak", "format": "binding"}
{"smiles": "Cc1cc(Cl)ccc1NC(=O)C(=O)C(C(=O)c1ccc2ccccc2c1)C1OC(=O)c2ccccc21", "note": "(stereo not shown) [MI-238]", "values": [{"measurement": "Ki", "result": "450 ± 50", "unit": "nM"}]}
